Experimental data: publication PMC8880564, “Design, Synthesis, and Biological Evaluation of a Novel VEGFR-2 Inhibitor Based on a 1,2,5-Oxadiazole-2-Oxide Scaffold with MAPK Signaling Pathway Inhibition” (Pharmaceuticals, 2022)

How the values were obtained:
Assay type in all cases: cell-based
SR = assay: NCI-60 one-dose SRB screening; conditions: Homo sapiens, Leukemia, 10 µM one dose, 48 h, read-out: growth percentage
DU-145 = assay: NCI-60 one-dose SRB screening; conditions: Homo sapiens, DU-145, Prostate Cancer, 10 µM one dose, 48 h, read-out: growth percentage
COLO 205 = assay: NCI-60 one-dose SRB screening; conditions: Homo sapiens, COLO 205, Colon Cancer, 10 µM one dose, 48 h, read-out: growth percentage
CAKI-1 = assay: NCI-60 one-dose SRB screening; conditions: Homo sapiens, CAKI-1, Renal Cancer, 10 µM one dose, 48 h, read-out: growth percentage
HOP-92 = assay: NCI-60 one-dose SRB screening; conditions: Homo sapiens, HOP-92, Non-Small Cell Lung Cancer, 10 µM one dose, 48 h, read-out: growth percentage
LOX IMVI = assay: NCI-60 one-dose SRB screening; conditions: Homo sapiens, Melanoma, 10 µM one dose, 48 h, read-out: growth percentage
HCT-116 = assay: NCI-60 one-dose SRB screening; conditions: Homo sapiens, HCT-116, Colon Cancer, 10 µM one dose, 48 h, read-out: growth percentage
CCRF-CEM = assay: NCI-60 one-dose SRB screening; conditions: Homo sapiens, Leukemia, 10 µM one dose, 48 h, read-out: growth percentage
MOLT-4 = assay: NCI-60 one-dose SRB screening; conditions: Homo sapiens, MOLT-4, Leukemia, 10 µM one dose, 48 h, read-out: growth percentage
NCI/ADR-RES = assay: NCI-60 one-dose SRB screening; conditions: Homo sapiens, Ovarian Cancer, 10 µM one dose, 48 h, read-out: growth percentage
HS 578T = assay: NCI-60 one-dose SRB screening; conditions: Homo sapiens, Breast Cancer, 10 µM one dose, 48 h, read-out: growth percentage
ACHN = assay: NCI-60 one-dose SRB screening; conditions: Homo sapiens, Renal Cancer, 10 µM one dose, 48 h, read-out: growth percentage
KM12 = assay: NCI-60 one-dose SRB screening; conditions: Homo sapiens, KM12, Colon Cancer, 10 µM one dose, 48 h, read-out: growth percentage
TK-10 = assay: NCI-60 one-dose SRB screening; conditions: Homo sapiens, TK-10, Renal Cancer, 10 µM one dose, 48 h, read-out: growth percentage
SNB-19 = assay: NCI-60 one-dose SRB screening; conditions: Homo sapiens, SNB-19, CNS Cancer, 10 µM one dose, 48 h, read-out: growth percentage
OVCAR-8 = assay: NCI-60 one-dose SRB screening; conditions: Homo sapiens, OVCAR-8, Ovarian Cancer, 10 µM one dose, 48 h, read-out: growth percentage
[1] = test system: NCI-59 human cancer cell lines; assay: NCI-60 one-dose SRB screening, full panel and subpanels; conditions: for activity at 10 µM: Homo sapiens, mean over the full panel, 10 µM one dose, 48 h, SRB, read-out: growth percentage, Mean
Experimental: The structures of the synthesized compounds 6a–h, 12a–c, 11, 13a–c, and 14a–c were submitted to the National Cancer Institute’s Developmental Therapeutics Program (NCI-DTP), and all of them were selected for preliminary in vitro anticancer activity screening against NCI-59 human cancer cell lines at a concentration of 10 µM, using the sulforhodamine B (SRB) assay to determine the growth percentage and cell viability.
The in vitro NCI-60 cell line screening assay was conducted at the National Cancer Institute (NCI), Bethesda, USA against 59 cancer cell lines representing 9 types of cancers, as reported earlier. Briefly, the human cancer cell lines were grown in RPMI 1640 medium containing 5% fetal bovine serum and 2 mM L-glutamine and inoculated into 96-well microtiter plates in 100 μL (5000 to 40,000 cells/well). Then, the plates were incubated at 37 °C, 5% CO2, 95% air, and 100% relative humidity for 24 h. After that, two plates of each cell line were fixed in situ with TCA, to represent cell population at time zero (Tz). The tested compounds were dissolved in DMSO at 400-fold and added so that the final concentration became 10 μM. The plates were then incubated for an additional 48 h followed by the addition of cold TCA to terminate the assay in case of adherent cells. Then, the cells were fixed in situ by cold 50% (w/v) TCA (50 μL; final concentration, 10% TCA) and incubated for 1 h at 4 °C. After discarding the supernatant, the plates were washed 5 times with tap water and air dried. Sulforhodamine B (SRB) solution (100 μL) at 0.4% (w/v) in 1% HOAc was added to each well, and plates were incubated for 10 min. at rt. Then, washing with 1% acetic acid was conducted 5 times to remove the unbound dye followed by air drying. After that, 10 mM trizma base was added to solubilize the bound stain, and the absorbance was read on an automated plate reader at a wavelength of 515 nm. On the other hand, the methodology for suspension cells was the same except that 50 μL of 80% TCA (final concentration, 16% TCA) was gently added to terminate the assay by fixing settled cells at the bottom of the wells. Percentage growth inhibition (GI%) was calculated as follows:
Growth percentage=Ti (test growth in the presence of compound at 10 µM )−Tz (time zero)/C (control growth)−Tz (time zero)×100 for Ti ≥ Tz;
Growth percentage=Ti (test growth in the presence of compound at 10 µM )−Tz (time zero)/Tz (time zero)×100 for Ti < Tz.
where values of 100, 40, 0, −40, and −100 mean no GI, 60% GI, no net G, 40% lethality, and all cells are dead, respectively.
Data are expressed as a one-dose mean graph of growth percentages including the mean, delta, and range.

[O-][n+]1onc(-c2ccccc2)c1COc1ccc(Nc2ncnc3c2cnn3-c2ccc(Br)cc2)cc1 [6e, 3-((4-((1-(4-bromophenyl)-1H-pyrazolo[3,4-d]pyrimidin-4-yl)amino)phenoxy)methyl)-4-phenyl-1,2,5-oxadiazole 2-oxide]
activity at 10 µM (SR): 98% | activity at 10 µM (DU-145): 107% | activity at 10 µM (COLO 205): 105% | activity at 10 µM (CAKI-1): 82.1% | activity at 10 µM (HOP-92): 109% | activity at 10 µM (LOX IMVI): 111% | activity at 10 µM (HCT-116): 92.7% | activity at 10 µM (CCRF-CEM): 108% | activity at 10 µM (MOLT-4): 103% | activity at 10 µM (NCI/ADR-RES): 107% | activity at 10 µM (HS 578T): 110% | activity at 10 µM (ACHN): 103% | activity at 10 µM (KM12): 103% | activity at 10 µM (TK-10): 107% | activity at 10 µM (SNB-19): 103% | activity at 10 µM (OVCAR-8): 105% | activity at 10 µM [1]: 101% | enhancement of the growth percentage (mean) ([1]; full NCI-59 panel, 10 µM): 1–5%

Cc1nc(Nc2ccc(OCc3c(-c4ccccc4)no[n+]3[O-])cc2)c2cnn(-c3ccc(Br)cc3)c2n1 [6f, 3-((4-((1-(4-bromophenyl)-6-methyl-1H-pyrazolo[3,4-d]pyrimidin-4-yl)amino)phenoxy)methyl)-4-phenyl-1,2,5-oxadiazole 2-oxide]
activity at 10 µM (SR): 87.1% | activity at 10 µM (DU-145): 104% | activity at 10 µM (COLO 205): 119% | activity at 10 µM (CAKI-1): 81.9% | activity at 10 µM (HOP-92): 111% | activity at 10 µM (LOX IMVI): 105% | activity at 10 µM (HCT-116): 97.5% | activity at 10 µM (CCRF-CEM): 104% | activity at 10 µM (MOLT-4): 91.5% | activity at 10 µM (NCI/ADR-RES): 106% | activity at 10 µM (HS 578T): 93.6% | activity at 10 µM (ACHN): 101% | activity at 10 µM (KM12): 101% | activity at 10 µM (TK-10): 97.7% | activity at 10 µM (SNB-19): 91.5% | activity at 10 µM (OVCAR-8): 106% | activity at 10 µM [1]: 99.7% | mean growth inhibition % (MGI%, GI%) ([1]; full NCI-59 panel, 10 µM): no mean growth inhibition percentage

Cc1nn(-c2ccccc2)c2nc(CCl)[nH]c(=O)c12 [13b]
activity at 10 µM (SR): 39.8% | activity at 10 µM (DU-145): 83.6% | activity at 10 µM (COLO 205): 110% | activity at 10 µM (CAKI-1): 99.6% | activity at 10 µM (HOP-92): 117% | activity at 10 µM (LOX IMVI): 101% | activity at 10 µM (HCT-116): 24.9% | activity at 10 µM (MOLT-4): 79.6% | activity at 10 µM (NCI/ADR-RES): 102% | activity at 10 µM (HS 578T): 120% | activity at 10 µM (ACHN): 90.2% | activity at 10 µM (KM12): 53.3% | activity at 10 µM (TK-10): 63.2% | activity at 10 µM (SNB-19): 89.4% | activity at 10 µM (OVCAR-8): 112% | activity at 10 µM [1]: 82.8%

Cc1nn(-c2ccc(Br)cc2)c2nc(CCl)[nH]c(=O)c12 [13c]
activity at 10 µM (DU-145): 110% | activity at 10 µM (COLO 205): 103% | activity at 10 µM (CAKI-1): 96.3% | activity at 10 µM (HOP-92): 101% | activity at 10 µM (LOX IMVI): 98.5% | activity at 10 µM (HCT-116): 98.3% | activity at 10 µM (CCRF-CEM): 83.7% | activity at 10 µM (NCI/ADR-RES): 102% | activity at 10 µM (HS 578T): 108% | activity at 10 µM (ACHN): 94.8% | activity at 10 µM (KM12): 83.6% | activity at 10 µM (TK-10): 111% | activity at 10 µM (SNB-19): 97.1% | activity at 10 µM (OVCAR-8): 102% | activity at 10 µM [1]: 88.3%
